The values that follow are results of earlier work, collected in patent publication US20180125835A1, “Dosage and Use of an A2A Antagonist” (H. Lundbeck A/S, priority 2014, published 2018).

For the data set the following is noted: in vivo; cited from earlier work.

Broadly, the half-life is the time in which the quantity being followed falls by half. With `Cc1ccc(-c2nc(N)nc3c2nnn3Cc2cccc(CO[C@H]3CCOC3)n2)o1` [Compound V-81444], the half-life was 5 to 7 h.
